The text below walks through data of US4298375A, “2-Substituted-5-phenyl-4-thiazolecarboxylic acids and their derivatives as safening agents” (Monsanto Company, priority 1979, dated 1981).

Holding throughout (assay type): in vivo
The subject of experiment [1] is sorghum. Briefly: Example 6: herbicidal effect on sorghum of alachlor with or without safening agent, soil treated with mixture, approximately 21 days. The following applies: for safening when tested in accordance with the procedure of Example 6: alachlor. As to the method:
(§1) A good grade of top soil was placed in a plastic pot and compacted to a depth of approximately 1.27 cm. from the top of said pot. A predetermined number of sorghum seeds and weed seeds were placed on top of the soil. A cover layer, approximately 1.27 cm., was placed on top of said seeds. The soil was then treated with a mixture of the safening agent and alachlor dispersed or dissolved in a suitable solvent. For each test series, pots were treated with only the herbicide. Additionally, pots were treated with only the safening agent. The herbicidal effect was observed approximately 21 days after treatment. Table IV summarizes the results obtained when the compounds of the invention were tested in accordance with the procedure of Example 6. Note that in each test a control is used in which the sorghum plants are treated with various rates of alachlor herbicide alone.

In experiment [2] the test system is sorghum. Briefly: Example 5: safening against triallate, alachlor or butachlor, safener and herbicide incorporated in soil, greenhouse, approximately 21 days. Also on record: key: (herbicide alone + safener alone, capped at 100) minus combination effect. The following applies: safening agent 8.96 kg/h. On the procedure:
A good grade of top soil is placed in a container and compacted to a depth of approximately 1.27 cm. from the top of said container. A predetermined number of sorghum seeds to be tested are placed on top of the soil. A quantity of soil sufficient to substantially fill the container is measured and placed in a second container. A measured quantity of the safening agent dispersed or dissolved in a suitable carrier is applied to the soil in the second container. A measured quantity of triallate, alachlor or butachlor herbicide dispersed or dissolved in a suitable carrier is then sprayed on the soil already treated with the safening agent. The soil containing the safening agent and the herbicide is thoroughly mixed. This mixing is sometimes referred to as incorporation of the herbicide and safening agent into the soil. The mixing or incorporation provides a substantially uniform distribution of the safening agent and herbicide throughout the soil. The sorghum seeds are covered with the soil containing the safening agent and herbicide and the pans are leveled. The pans are then placed on a sand bench in the greenhouse and watered from below as needed. The sorghum plants are observed at the end of approximately 21 days and the results in terms of percent inhibition of each seed lot are recorded. For each test series a pan of plants is also prepared containing no herbicide and no safening agent as a control. Additionally, for each test, a pan of plants is prepared with soil covering the seed containing no herbicide and only the measured amount of safening agent being incorporated into the soil covering the seeds to ascertain any herbicidal effect of the safening agent alone. For each series of tests the herbicidal effect of the herbicide is observed from pans of sorghum plants tested with the same quantity of herbicide alone. The "safening effect" is determined by adding the herbicidal effect of the herbicide when applied alone to the herbicidal effect of the safening agent when applied alone (in no instance, however, will this sum be greater than 100) and subtracting from that the herbicidal effect obtained when the herbicide and safening agent are incorporated into the soil as discussed above.

The test system of the next experiment is Green Foxtail. As to the kind of experiment: Example 6: herbicidal effect on weed (Green Foxtail) of alachlor with or without safening agent, soil treated with mixture, approximately 21 days. As to the method:
as §1

[3] abbreviates: alachlor 2.24 kg/h, (herbicide alone + safener alone) minus combination.
Where [4] appears, read: butachlor 6.72 kg/h, (herbicide alone + safener alone) minus combination.
[5] abbreviates: triallate 0.56 kg/h, (herbicide alone + safener alone) minus combination.
Where [6] appears, read: safening agent 8.96 kg/h + alachlor 0.56 kg/h.
The mark [7] stands for this setting: safening agent 8.96 kg/h + alachlor 1.12 kg/h.
Where [8] appears, read: safening agent 8.96 kg/h + alachlor 2.24 kg/h.
Where [9] appears, read: safening agent 8.96 kg/h + alachlor 4.48 kg/h.
Setting [10] is: safening agent 8.96 kg/h alone, alachlor 0.00 kg/h.
[11] abbreviates: alachlor alone 0.56 kg/h, no safening agent, first test.
Where [12] appears, read: alachlor alone 0.56 kg/h, no safening agent, second test.
Where [13] appears, read: alachlor alone 1.12 kg/h, no safening agent, first test.
Setting [14] is: alachlor alone 1.12 kg/h, no safening agent, second test.
Setting [15] is: alachlor alone 2.24 kg/h, no safening agent, first test.
The mark [16] stands for this setting: alachlor alone 2.24 kg/h, no safening agent, second test.
[17] abbreviates: alachlor alone 4.48 kg/h, no safening agent, first test.
The mark [18] stands for this setting: alachlor alone 4.48 kg/h, no safening agent, second test.
Setting [19] is: butachlor 6.72 kg/h, value given as symbol *.
The mark [20] stands for this setting: safening agent 9.96 kg/h (so in the source) + alachlor, rate not printed on this line (line below 4.48 kg/h).

Take `COC(=O)c1nc(N)sc1-c1ccccc1` [Example 1, Methyl 2-Amino-5-Phenyl-4-Thiazolecarboxylate]: the “safening when tested in accordance with the procedure of Example 6” value with sorghum [1] is “no significant safenin”. The “Safening Effect” value stood at 24 in the experiment on sorghum [2] (setting [3]), 35 with sorghum [2] (setting [4]) and 56 in the experiment with sorghum [2] (setting [5]).

`COC(=O)c1nc(Cl)sc1-c1ccccc1` [Example 2, Methyl 2-Chloro-5-Phenyl-4-Thiazolecarboxylate]: the “% Inhibition Sorghum” value was determined as 30% in the experiment on sorghum [1] (setting [6]); 65% in the experiment with sorghum [1] (setting [7]); 70% in the experiment on sorghum [1] (setting [8]); 70% with sorghum [1] (setting [9]); 0% in the experiment with sorghum [1] (setting [10]). In addition, the “% Inhibition Green Foxtail” value was found to be 100% in the experiment on Green Foxtail (setting [6]); 100% with Green Foxtail (setting [7]); 100% with Green Foxtail (setting [8]); 100% with Green Foxtail (setting [9]); 0% with Green Foxtail (setting [10]). Moreover, the “Safening Effect” value with sorghum [2] (setting [3]) came out at 20; with sorghum [2] (setting [4]) it was 40; with sorghum [2] (setting [5]) it was 45.

For the compound `CCc1cccc(CC)c1N(COC)C(=O)CCl` [Alachlor, 2-chloro-2',6'-diethyl-N-(methoxymethyl)acetanilide, reference compound], the “% Inhibition Sorghum” value with sorghum [1] (setting [11]) is 80%; with sorghum [1] (setting [12]) it was 80%; in the experiment with sorghum [1] (setting [13]), 85%; in the experiment on sorghum [1] (setting [14]), 85%; in the experiment with sorghum [1] (setting [15]), 90%; in the experiment with sorghum [1] (setting [16]) it was 85%. For the same compound, the “% Inhibition Sorghum” value stood at 95% with sorghum [1] (setting [17]) and 100% in the experiment with sorghum [1] (setting [18]). Moreover, the “% Inhibition Green Foxtail” value is reported as 98% in the experiment with Green Foxtail (setting [11]); 98% in the experiment with Green Foxtail (setting [12]); 99% with Green Foxtail (setting [13]); 98% in the experiment on Green Foxtail (setting [14]); 100% in the experiment on Green Foxtail (setting [15]); 98% in the experiment on Green Foxtail (setting [16]). For the same compound, the “% Inhibition Green Foxtail” value in the experiment with Green Foxtail (setting [17]) and in the experiment on Green Foxtail (setting [18]) was 100% each time.

`COC(=O)c1nc(Sc2ccccc2)sc1-c1ccccc1` [Example 4, Methyl 5-Phenyl-2-Phenylthio-4-Thiazolecarboxylate]: the “safening when tested in accordance with the procedure of Example 6” value in the experiment with sorghum [1] was “no significant safenin”. The “Safening Effect” value in the experiment with sorghum [2] (setting [3]) was 20; with sorghum [2] (setting [19]), “* (Observed safening effect was less than 19.)”; with sorghum [2] (setting [5]) it was 35.

In the case of `COC(=O)c1nc(OC)sc1-c1ccccc1` [Example 3, Methyl 2-Methoxy-5-Phenyl-4-Thiazolecarboxylate], the “% Inhibition Sorghum” value with sorghum [1] (setting [6]) turned out to be 50%; with sorghum [1] (setting [7]), 65%; in the experiment on sorghum [1] (setting [9]), 40%; in the experiment on sorghum [1] (setting [10]), 0%; in the experiment on sorghum [1] (setting [20]), 75%. Further, the “% Inhibition Green Foxtail” value in the experiment with Green Foxtail (setting [6]) is listed as 100%; in the experiment on Green Foxtail (setting [7]), 100%; with Green Foxtail (setting [9]), 100%; in the experiment with Green Foxtail (setting [10]), 0%; in the experiment with Green Foxtail (setting [20]), 100%. The “Safening Effect” value in the experiment on sorghum [2] (setting [3]) was 23; with sorghum [2] (setting [19]) it was “* (Observed safening effect was less than 19.)”; in the experiment on sorghum [2] (setting [5]) it was 37.
